Results taken from ChEMBL document CHEMBL1157232, “Wortmannilactones A-D, 22-membered triene macrolides from Talaromyces wortmannii” (J Nat Prod, 2006).
Values after ≈ are worked out from the molar mass of the structure shown.

Columns and labels:
[1] = Cytotoxicity against human HCT5 cells; assay type: functional, cell-based
[2] = system: A549; assay: Cytotoxicity against human A549 cells; assay type: functional, cell-based
[3] = system: K562; assay: Cytotoxicity against human K562 cells; assay type: functional, cell-based
[4] = Cytotoxicity against human HCT115 cells; assay type: functional, cell-based
[5] = system: MDA-MB-231; assay: Cytotoxicity against human MDA-MB-231 cells; assay type: functional, cell-based
[6] = system: Human alphaherpesvirus 2; assay: Antiviral activity against Herpes simplex virus 2; assay type: functional, organism-based
[7] = system: B16-F10; assay: Cytotoxicity against mouse B16-F10 cells; assay type: functional, cell-based
[8] = system: Human alphaherpesvirus 1; assay: Antiviral activity against Herpes simplex virus 1; assay type: functional, organism-based

| SMILES | IC50 [1] [µM] | IC50 [2] [µM] | IC50 [3] [µM] | IC50 [4] [µM] | IC50 [5] [µM] | IC50 [6] [µg/mL] | IC50 [7] [µg/mL] | IC50 [8] [µg/mL] |
| --- | --- | --- | --- | --- | --- | --- | --- | --- |
| COC1/C=C/C=C/C=C/CC(O)CC(O)C/C=C/C=C/C=C/C(=O)OC(CC(C)O)C1 (stereo not drawn) [WORTMANNILACTONE D] | 46.3 | 116 | 123 | 44.7 | 111 | – | – | – |
| CC(O)CC1CC(O)/C=C/C=C/C=C/CC(O)CC(O)C/C=C/C=C/C=C/C(=O)O1 (stereo not drawn) [WORTMANNILACTONE C] | 56.3 | 118 | 130 | 52.4 | 120 | – | – | – |
| C[C@@H]1CCC/C=C/C=C/[C@H](O)C[C@@H](O)C/C=C\C=C\[C@@H](O)C/C=C/C=C\C(=O)O1 [MACROLACTIN A] | – | – | – | – | – | 8.3 (≈ 20.6 µM) | 3.5 (≈ 8.69 µM) | 5 (≈ 12.4 µM) |
| CC(O)CC1C/C=C/C=C/C=C/C(O)CC(O)CC(O)C/C=C/C=C/C=C/C(=O)O1 (stereo not drawn) [WORTMANNILACTONE A] | 28.7 | 76.5 | 65.7 | 35 | 108 | – | – | – |
| COC1/C=C/C=C/C=C/CC(CC(C)O)OC(=O)/C=C/C=C/C=C/CC(O)CC(O)C1 (stereo not drawn) [WORTMANNILACTONE B] | 32.4 | 104 | 116 | 41.7 | 95.6 | – | – | – |
